Data reported in US20210330611A1, “THERAPY FOR NEUROLOGICAL DISEASES/DISORDERS” (priority 2020, published 2021).
Counter-ions that a name gives are not always drawn. Like-named read-outs stand apart in the source and are kept apart here.

Tests used:
Assay type in all cases: cell-based, rat
[1] = system: fibrin-induced microglia activation; test: Image-based assay of fibrin-induced microglia activation (HTS and dose response); conditions: for inhibition at 10 µM: read-out: Fibrin % inhibition
[2] = system: fibrin- and LPS-induced microglia activation; test: cells; conditions: for Activity: Table 7, fib = fibrin, LPS, tox = toxicity
[3] = system: LPS-induced microglia activation; test: Image-based assay of LPS-induced microglia activation (HTS and dose response)
[4] = Rattus norvegicus, Microglia, primary microglia HTS, fibrin stimulation, activation = cell size >800 μm2
[5] = quadrant by fibrin and LPS inhibition in HTS of 1907 compounds
[6] = Rattus norvegicus, Microglia, 48 h, primary microglia HTS, LPS stimulation, activation = cell size >800 μm2; read-out: LPS % inhibition
[7] = Rattus norvegicus, Microglia, 48 h, read-out: LPS % inhibition
[8] = Rattus norvegicus, Microglia, primary microglia HTS, fibrin stimulation, increased cell size (>800 μm^2) as marker of activation
[9] = Rattus norvegicus, Microglia, 48 h, primary microglia HTS, LPS stimulation; increased cell size (>800 μm^2) as marker of activation; read-out: LPS % inhibition
[10] = Rattus norvegicus, Microglia, primary microglia HTS, fibrin stimulation, compounds at 10 μM
[11] = quadrant by fibrin and LPS inhibition, HTS at 10 μM
[12] = Rattus norvegicus, Microglia, primary microglia HTS, LPS stimulation, compounds at 10 μM; read-out: LPS % inhibition
[13] = Rattus norvegicus, Microglia, primary microglia HTS, fibrin stimulation, cell size >800 μm2 as marker of activation
[14] = classification by fibrin and LPS inhibition in HTS
[15] = Rattus norvegicus, Microglia, 48 h; read-out: LPS % inhibition
[16] = Rattus norvegicus, Microglia, Table 7, read-out: fib_IC50
[17] = Rattus norvegicus, Microglia, Table 7; read-out: LPS_IC50

## O.OC[C@H]1O[C@@H](O[C@H]2[C@H](O)[C@@H](O)C(O)O[C@@H]2CO)[C@H](O)[C@@H](O)[C@H]1O (some centres unmarked) [Lactose Monohydrate]
[1]; [4]
  inhibition at 10 µM: -22%
[2]; [5]
  Quadrant (FIG. 5b): Q4
[3]; [6]
  inhibition at 10 µM: 9%

## O=C(O)COCCN1CCN([C@H](c2ccccc2)c2ccc(Cl)cc2)CC1 [Levocetirizine Dihydrochloride]
[1]; Rattus norvegicus, Microglia
  inhibition at 10 µM: -44%
[2]
  Quadrant (FIG. 5b): Q4
[3]; [7]
  inhibition at 10 µM: -2%

## C#C[C@]1(O)CC[C@H]2[C@@H]3CCC4=CC(=O)CC[C@@H]4[C@H]3CC[C@@]21CC [Levonorgestrel]
[1]; [4]
  inhibition at 10 µM: 16%
[2]; [5]
  Quadrant (FIG. 5b): Q4
[3]; [6]
  inhibition at 10 µM: -13%

## CCN(CC)CC(=O)Nc1c(C)cccc1C [Lidocaine]
[1]; Rattus norvegicus, Microglia
  inhibition at 10 µM: -23%
[2]
  Quadrant (FIG. 5b): Q4
[3]; [7]
  inhibition at 10 µM: 8%

## O=C(O)CCCCC1CCSS1 (centres unmarked) [Lipoic Acid]
[1]; primary microglia HTS, fibrin stimulation, activation = cell size >800 μm2
  Fibrin % inhibition: −38%
[2]; [5]
  Quadrant (FIG. 5b): Q4
[3]; primary microglia HTS, LPS stimulation, activation = cell size >800 μm2
  LPS % inhibition: 39%

## NCCCC[C@H](N[C@@H](CCc1ccccc1)C(=O)O)C(=O)N1CCC[C@H]1C(=O)O [Lisinopril]
[1]; Rattus norvegicus, Microglia
  inhibition at 10 µM: 1%
[2]
  Quadrant (FIG. 5b): Q4
[3]; [7]
  inhibition at 10 µM: 3%

## CCn1cc(C(=O)O)c(=O)c2cc(F)c(N3CCNC(C)C3)c(F)c21 (centres unmarked) [Lomefloxacin]
[1]; Rattus norvegicus, Microglia
  inhibition at 10 µM: 7%
[2]
  Quadrant (FIG. 5b): Q4
[3]; [7]
  inhibition at 10 µM: 15%

## C#CC(C)(O)CC (centres unmarked) [Meparfylon]
[1]; primary microglia HTS, fibrin stimulation, increased cell size (>800 μm^2) as marker of activation
  Fibrin % inhibition: −49%
[2]; [5]
  Quadrant (FIG. 5b): Q4
[3]; primary microglia HTS, LPS stimulation; increased cell size (>800 μm^2) as marker of activation
  LPS % inhibition: 3%

## CN1CCN2c3ccccc3Cc3ccccc3C2C1 (centres unmarked) [Mianserin]
[1]; Rattus norvegicus, Microglia
  inhibition at 10 µM: -18%
[2]
  Quadrant (FIG. 5b): Q4
[3]; [7]
  inhibition at 10 µM: 17%

## CN(C)c1ccc(O)c2c1C[C@H]1C[C@H]3[C@H](N(C)C)C(O)=C(C(N)=O)C(=O)[C@@]3(O)C(O)=C1C2=O [Minocycline]
[1]; [8]
  inhibition at 10 µM: -6%
[2]; [5]
  Quadrant (FIG. 5b): Q4
[3]; [9]
  inhibition at 10 µM: 16%

## Nc1cc(N2CCCCC2)nc(N)[n+]1[O-] [Minoxidil]
[1]; [8]
  inhibition at 10 µM: -5%
[2]; [5]
  Quadrant (FIG. 5b): Q4
[3]; [9]
  inhibition at 10 µM: 9%

## COc1ccc2cc([C@H](C)C(=O)O)ccc2c1 [Naproxen]
[1]; Rattus norvegicus, Microglia
  inhibition at 10 µM: -25%
[2]
  Quadrant (FIG. 5b): Q4
[3]; [7]
  inhibition at 10 µM: 15%

## O=C(O)c1cccnc1 [Niacin]
[1]; Rattus norvegicus, Microglia
  inhibition at 10 µM: 8%
[2]
  Quadrant (FIG. 5b): Q4
[3]; [7]
  inhibition at 10 µM: 13%

## COC(=O)C1=C(C)NC(C)=C(C(=O)OC)C1c1ccccc1[N+](=O)[O-] [Nifedipine]
[1]; Rattus norvegicus, Microglia
  inhibition at 10 µM: -36%
[2]
  Quadrant (FIG. 5b): Q4
[3]; [7]
  inhibition at 10 µM: 2%

## CS(=O)(=O)Nc1ccc([N+](=O)[O-])cc1Oc1ccccc1 [Nimesulide]
[1]; Rattus norvegicus, Microglia
  inhibition at 10 µM: -19%
[2]
  Quadrant (FIG. 5b): Q4
[3]; [7]
  inhibition at 10 µM: 13%

## C#C[C@]1(O)CC[C@H]2[C@@H]3CCC4=C(CCC(=O)C4)[C@H]3CC[C@@]21C [Norethynodrel]
[1]; Rattus norvegicus, Microglia
  inhibition at 10 µM: 1%
[2]
  Quadrant (FIG. 5b): Q4
[3]; [7]
  inhibition at 10 µM: 10%

## C#CC1(O)CC[C@H]2[C@@H]3CCC4=CC(=O)CC[C@@H]4[C@H]3CC[C@@]21CC (some centres unmarked) [Norgestrel]
[1]; [8]
  inhibition at 10 µM: 4%
[2]; [5]
  Quadrant (FIG. 5b): Q4
[3]; [9]
  inhibition at 10 µM: 22%

## Cc1nccn1CC1CCc2c(c3ccccc3n2C)C1=O (centres unmarked) [Ondansetron]
[1]; [10]
  inhibition at 10 µM: 106%
[1]; [8]
  inhibition at 10 µM: -6%
[2]; [5]
  Quadrant (FIG. 5b): Q4
[2]; [11]
  Quadrant (FIG. 5b): Q2
[3]; [9]
  inhibition at 10 µM: 14%
[3]; [12]
  inhibition at 10 µM: 92%

## CC(C)(CO)[C@@H](O)C(=O)NCCC(=O)NCCSSCCNC(=O)CCNC(=O)[C@H](O)C(C)(C)CO [Pantethine]
[1]; Rattus norvegicus, Microglia
  inhibition at 10 µM: -53%
[2]
  Quadrant (FIG. 5b): Q4
[3]; [7]
  inhibition at 10 µM: 7%

## CC(N)C(O)c1ccccc1 (centres unmarked) [Phenylpropanolamine]
[1]; Rattus norvegicus, Microglia
  inhibition at 10 µM: -2%
[2]
  Quadrant (FIG. 5b): Q4
[3]; [7]
  inhibition at 10 µM: -6%

## CC(N/C(=N\C#N)Nc1ccncc1)C(C)(C)C (centres unmarked) [Pinacidil]
[1]; [13]
  inhibition at 10 µM: 15%
[2]; [14]
  Quadrant (FIG. 5b): Q4
[3]; [15]
  inhibition at 10 µM: 26%

## O=C(CCBr)N1CCN(C(=O)CCBr)CC1 [Pipobroman]
[1]; Rattus norvegicus, Microglia
  inhibition at 10 µM: -28%
[2]
  Quadrant (FIG. 5b): Q4
[3]; [7]
  inhibition at 10 µM: 0%

## COc1cc([C@@H]2c3cc4c(cc3[C@H](O)[C@H]3COC(=O)[C@H]23)OCO4)cc(OC)c1OC [Podofilox, reference compound]
[1]; [16]
  IC50: 0.014 µM
[2]; Table 2, screen at 10 μM
  Quadrant (FIG. 5b): Q2
[2]
  Activity: fib/LPS
[3]; [17]
  IC50: 0.002 µM

## C[C@]12CC[C@H](O)CC1=CC[C@@H]1[C@@H]2CC[C@]2(C)C(=O)CC[C@@H]12 [Prasterone]
[1]; [13]
  inhibition at 10 µM: 1%
[2]; [14]
  Quadrant (FIG. 5b): Q4
[3]; [15]
  inhibition at 10 µM: 15%

## C[C@]12C=CC(=O)C=C1CC[C@@H]1[C@@H]2[C@@H](O)C[C@@]2(C)[C@H]1CC[C@]2(O)C(=O)CO [Prednisolone, reference compound]
[1]; [16]
  IC50: 0.002 µM
[1]; [10]
  inhibition at 10 µM: 97%
[1]; [8]
  inhibition at 10 µM: 114%
[2]; Table 2, screen at 10 μM
  Quadrant (FIG. 5b): Q2
[2]
  Activity: fib/LPS
[2]; [5]
  Quadrant (FIG. 5b): Q2
[2]; [11]
  Quadrant (FIG. 5b): Q2
[3]; [9]
  inhibition at 10 µM: 100%
[3]; [17]
  IC50: 0.002 µM
[3]; [12]
  inhibition at 10 µM: 87%

## CC(C)C[C@H](CN)CC(=O)O [Pregabalin]
[1]; Rattus norvegicus, Microglia
  inhibition at 10 µM: -5%
[2]
  Quadrant (FIG. 5b): Q4
[3]; [7]
  inhibition at 10 µM: 1%

## CCCNCC(O)COc1ccccc1C(=O)CCc1ccccc1 (centres unmarked) [Propafenone]
[1]; Rattus norvegicus, Microglia
  inhibition at 10 µM: 16%
[2]
  Quadrant (FIG. 5b): Q4
[3]; [7]
  inhibition at 10 µM: 21%

## CN[C@@H](C)[C@@H](O)c1ccccc1 [Pseudoephedrine]
[1]; [13]
  inhibition at 10 µM: -13%
[2]; [14]
  Quadrant (FIG. 5b): Q4
[3]; [15]
  inhibition at 10 µM: 5%

## Cc1cc(/C=C/c2ccc3cc(N(C)C)ccc3[n+]2C)c(C)n1-c1ccccc1 [Pyrvinium]
[1]; Rattus norvegicus, Microglia
  inhibition at 10 µM: 113%
[2]
  Quadrant (FIG. 5b): Q2
[3]; Rattus norvegicus, Microglia, read-out: LPS % inhibition
  inhibition at 10 µM: 115%

## CN1CCc2cccc3c2[C@H]1Cc1ccc(O)c(O)c1-3.Cl [R(−)-Apomorphine hydrochloride, reference compound]
[1]
  Fibrin % inhibition: 63%
[1]; Table 1, dose response 0.001-20 μM, triplicates, primary rat microglia, 48 h, read-out: Fibrin IC50
  IC50: > 20 µM
[1]; read-out: Fibrin IC50
  IC50: > 20 µM
[1]; read-out: Fibrin IC50 (uM) (Suppl. Table 7)
  IC50: > 20 µM
[2]
  Cherry-picked Hit (Suppl. Table 7): HIT (key: HIT: Hits were defined as molecules that exhibited greater than 50% inhibition of either fibrin or LPS activation)
  Hit: HIT (key: HIT: Hits were defined as molecules that exhibited greater than 50% inhibition of either fibrin or LPS activation)
  Quadrant (FIG. 5b): Q3
[2]; Table 1, screen at 10 μM
  Quadrant (FIG. 5b): Q3
[3]
  LPS % inhibition: 18%
[3]; Table 1; dose response 0.001-20 μM, triplicates, primary rat microglia, 48 h; read-out: LPS IC50
  IC50: 14 µM
[3]; read-out: LPS IC50
  IC50: 14 µM
[3]; read-out: LPS IC50 (uM) (Suppl. Table 7)
  IC50: 14 µM

## CNC(C)C(O)c1ccccc1 (centres unmarked) [Racephedrine Hydrochloride]
[1]; [13]
  inhibition at 10 µM: -26%
[2]; [14]
  Quadrant (FIG. 5b): Q4
[3]; [15]
  inhibition at 10 µM: 17%

## Cc1cc2nc3c(=O)[nH]c(=O)nc-3n(C[C@H](O)[C@H](O)[C@H](O)COP(=O)([O-])O)c2cc1C.[Na+] [Riboflavin 5-phosphate Sodium]
[1]; primary microglia HTS, fibrin stimulation, cell size >800 μm2 as marker of activation
  Fibrin % inhibition: 11%
[2]; [14]
  Quadrant (FIG. 5b): Q4
[3]
  LPS % inhibition: 24%

## Nc1nc2ccc(OC(F)(F)F)cc2s1 [Riluzole]
[1]; Rattus norvegicus, Microglia
  inhibition at 10 µM: 0%
[2]
  Quadrant (FIG. 5b): Q4
[3]; [7]
  inhibition at 10 µM: 7%

## CN1[C@@H]2C[C@@H](OC(=O)[C@H](CO)c3ccccc3)C[C@H]1[C@@H]1O[C@@H]12 [Scopolamine Hydrobromide]
[1]
  Fibrin % inhibition: 5%
[2]
  Quadrant (FIG. 5b): Q4
[3]
  LPS % inhibition: 3%

## CN1[C@@H]2C[C@@H](OC(=O)[C@H](CO)c3ccccc3)C[C@H]1[C@@H]1O[C@@H]12 [Scopolamine]
[1]
  Fibrin % inhibition: −26%
[2]
  Quadrant (FIG. 5b): Q4
[3]
  LPS % inhibition: −6%
